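Results reflect a 48-hour exposure of cells in 96-well plates to compound at five concentrations. At the GI50, growth is halved. TGI denotes the concentration required for complete inhibition of growth.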
Assays:
Assay in all cases: NCI anticancer screen, dose series, 48 h
[1] = tested on: HS 578T breast
[2] = tested on: NCI-H522 lung
[3] = tested on: CCRF-CEM leukemia
[4] = tested on: EKVX NSCLC
[5] = tested on: ACHN renal
[6] = tested on: PC-3 prostate
[7] = tested on: COLO 205 colon
[8] = tested on: HCT-15 colon
[9] = tested on: SK-MEL-5 melanoma
[10] = tested on: RPMI-8226 leukemia

Row | Compound | TGI [1] [µM] | TGI [2] [µM] | TGI [3] [µM] | TGI [4] [µM] | TGI [5] [µM] | TGI [6] [µM] | TGI [7] [µM] | TGI [8] [µM] | TGI [9] [µM] | TGI [10] [µM] | GI50 [1] [nM] | GI50 [2] [nM] | GI50 [3] [nM] | GI50 [6] [nM] | GI50 [7] [nM] | GI50 [8] [nM]
1 | CC(C)C(C/C=C1\CC(CO)(COC(=O)c2ccccc2)OC1=O)C(C)C (configuration not stated) | 33.4 | 38.5 | 44.1 | 29.8 | 32 | 32.5 | 25.4 | 41 | 29.7 | – | – | – | – | – | – | –
2 | Cc1ccsc1/C=N/Nc1cc(C)c2cccc(C)c2n1 | > 100 | – | – | > 100 | > 100 | > 100 | > 100 | – | – | – | – | – | – | – | – | –
3 | CCOc1ccc(/C=C(\Cl)c2ccc(OC)c(OC)c2)cc1 | – | 74.1 | > 100 | > 100 | > 100 | – | > 100 | > 100 | > 100 | > 100 | – | – | – | – | – | –
4 | CN(C(=O)Cc1ccc(Cl)c(Cl)c1)[C@H]1CCCC[C@@H]1[N+]1(C)CCCC1 | > 100 | > 100 | – | > 100 | > 100 | > 100 | > 100 | > 100 | > 100 | > 100 | – | – | – | – | – | –
5 | O=C1O/C(=C(\Br)c2cccc3ccccc23)c2ccccc21 | – | 33 | 46.1 | > 59.7 | > 55.1 | – | > 53.8 | > 65.6 | 51.1 | 71.4 | – | – | – | – | – | –
6 | CC(=O)[C@@H]1CCC=C2CC[C@]3(C)[C@@H](CC[C@@H]4[C@@]5(C)CCCNC(C)(C)[C@@H]5CC[C@]43C)[C@H]21 | 4.39 | 3.5 | 5.63 | – | – | 3.06 | 2.79 | 2.84 | – | – | 1870 | 1930 | 2270 | 1650 | 1380 | 1440
7 | CC(C)SC(C)(NC(=O)C1C(C)(C)CCC1(C)C)C(=O)O (configuration not stated) | > 100 | – | > 100 | > 100 | > 100 | > 100 | > 100 | > 100 | > 100 | > 100 | – | – | – | – | – | –
8 | Cc1sc2nc(-c3cc([N+](=O)[O-])c(Cl)cc3Cl)c(/C=N/N=C(N)N)n2c1C | 82.7 | 34.2 | > 100 | 48.4 | 39.2 | 36.2 | – | > 100 | 27.1 | 54 | – | – | – | – | – | –
9 | CCCCCCCC(=O)OC(CBr)COC(=O)C(C)(C)C (configuration not stated) | – | > 100 | > 87.2 | > 100 | > 100 | – | > 100 | > 100 | > 100 | > 71.2 | – | – | – | – | – | –
10 | CCCCCCCCCCCCCCCCCCNc1ccn(C2OC(COP(=O)(O)OCC3CCC(n4cnc5c(=O)[nH]cnc54)O3)C(O)C2O)c(=O)n1 (configuration not stated) | > 100 | > 100 | > 100 | > 100 | > 100 | 47.6 | > 100 | > 100 | > 100 | – | – | – | – | – | – | –
11 | O=C(Nc1nc2ccccc2n1Cc1ccccc1)NC12CC3CC(CC(C3)C1)C2 | – | > 100 | > 100 | > 100 | > 100 | – | > 100 | > 100 | > 100 | > 100 | – | – | – | – | – | –
12 | O=C(NCCC(F)(F)C(F)(F)C(F)(F)C(F)(F)F)NC1OC(CO)C(O)C(O)C1O (configuration not stated) | > 100 | – | > 100 | – | > 100 | > 100 | > 100 | > 100 | > 100 | > 100 | – | – | – | – | – | –

— PubChem BioAssay (NCI)
